According to patent publication US20260250318A1, “COMPOSITIONS AND METHODS FOR CROSSING THE BLOOD BRAIN BARRIER” (VOYAGER THERAPEUTICS, INC., priority 2022, published 2026):

Experiments:
Conditions in all cases: synthetic library passage 3, intravenous, relative to wild-type AAV9
[1] = system: brain, spinal cord, and DRG of the NHPs; assay: NGS fold enrichment of synthetic library (passage 3) in NHPs, first cross-species screen; format: in vivo, cynomolgus macaques (Macaca fascicularis)
Description: (§1) After creation of the synthetic library with the sub-selected variants, the synthetic library was screened (passage 3) in two NHPs (2-4 years of age) and two strains of mice, BALB/c (n=3, 6-8 weeks of age) and C57Bl/6 mice (n=3, 6-8 weeks of age), in a first cross-species evolution screen. The animals were injected intravenously with the synthetic library. After a period in vivo, (e.g., 28-days) RNA was extracted from nervous tissue, e.g., brain, spinal cord, and DRG of the NHPs and the brains of mice. Following RNA recovery and RT-PCR amplification, a systematic NGS enrichment analysis was performed, and the peptides comprised within the variants were identified and the capsid enrichment ratio for each variant compared to the wild-type AAV9 control was calculated (fold enrichment relative to wild-type AAV9) (Table 9). […] All animals were dosed intravenously at […] across the screen.

brain [2] = assay: NGS fold enrichment of synthetic library (passage 3) in BALB/c mice, first cross-species screen; format: in vivo
Description: as §1

brain [3] = assay: NGS fold enrichment of synthetic library (passage 3) in C57Bl/6 mice, first cross-species screen; format: in vivo
Description: as §1

[4] = RNA from spinal cord of NHPs, NGS
[5] = RNA from brain of BALB/c mice, NGS
[6] = RNA from brain of C57Bl/6 mice, NGS

Row | Sequence | Fold enrichment over AAV9 in the brain of NHPs ([1]; RNA NGS, brain of NHPs) | Fold enrichment over AAV9 in the spinal cord of NHPs ([1]; RNA NGS, spinal cord of NHPs) | Fold enrichment over AAV9 in the brain of Mice (BALB/c) (brain [2]; RNA NGS, brain of BALB/c mice) | Fold enrichment over AAV9 in the brain of Mice (C57Bl/6) (brain [3]; RNA NGS, brain of C57Bl/6 mice) | Fold enrichment over AAV9 in the brain of NHPs ([1]; RNA from brain of NHPs, NGS) | Fold enrichment over AAV9 in the spinal cord of NHPs [1, 4] | Fold enrichment over AAV9 in the brain of Mice (BALB/c) (brain [2]; [5]) | Fold enrichment over AAV9 in the brain of Mice (C57Bl/6) (brain [3]; [6])
1 | GIFMQTPSGQNQQT | 2.344 fold | 6.198 fold | 0.252 fold | 0.938 fold | – | – | – | –
2 | GIILGASSGQNQQT | 3.630 fold | 4.868 fold | 0.865 fold | 1.378 fold | – | – | – | –
3 | GILLATPSGQNQQT | 1.931 fold | 8.205 fold | 0.288 fold | 1.341 fold | – | – | – | –
4 | GIMARDSSGQNQQT | 1.972 fold | 3.486 fold | 0.904 fold | 1.320 fold | – | – | – | –
5 | GIPSIRESGQNQQT | – | – | – | – | 1.282 fold | 0.166 fold | 0.254 fold | 0.484 fold
6 | GKPAGGLSGQNQQT | 1.085 fold | 2.805 fold | 0.739 fold | 0.708 fold | – | – | – | –
7 | GKSFVPQSGQNQQT | 1.489 fold | 2.502 fold | 0.430 fold | 1.798 fold | – | – | – | –
8 | GLAGHTVSGQNQQT | 3.632 fold | 0.229 fold | 0.202 fold | 0.972 fold | – | – | – | –
9 | GLAHKTSSGQNQQT | 1.106 fold | 0.915 fold | 0.690 fold | 0.427 fold | – | – | – | –
10 | GLGAYQSSGQNQQT | 1.574 fold | 0.696 fold | 0.688 fold | 1.407 fold | – | – | – | –
11 | GLGSKNHSGQNQQT | – | – | – | – | 1.187 fold | 5.046 fold | 0.224 fold | 0.825 fold
12 | GLGSKNPSGQNQQT | – | – | – | – | 1.147 fold | 1.629 fold | 0.424 fold | 1.184 fold
13 | GLGYPGSSGQNQQT | 1.763 fold | 7.090 fold | 0.577 fold | 0.929 fold | – | – | – | –
14 | GLHGMTLSGQNQQT | – | – | – | – | 1.226 fold | 3.552 fold | 0.338 fold | 0.470 fold
15 | GLLAGKSSGQNQQT | 1.491 fold | 2.981 fold | 0.946 fold | 0.999 fold | – | – | – | –
16 | GLNHFGASGQNQQT | 3.802 fold | 3.188 fold | 0.579 fold | 0.774 fold | – | – | – | –
17 | GLRLSTPSGQNQQT | 1.498 fold | 4.334 fold | 0.522 fold | 0.804 fold | – | – | – | –
